Experimental data from US20240270762A1, “PENICILLIN-BINDING PROTEIN INHIBITORS” (priority 2021, published 2024).

Target: T1, PBP2 from Neisseria gonorrhoeae (FA19) (Neisseria gonorrhoeae, UniProt P08149)
T1 construct: made in house
Assay: Bocillin-FL fluorescence polarization competition binding, N. gonorrhoeae PBP2
Conditions: fluorescence polarization competition binding assay using Bocillin-FL, read-out: N. gonorrhoeae PBP2 Potency
Method in brief: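 Fluorescence polarization competition with 0.1 μM Bocillin-FL (fluorescent penicillin V) against 0.25 μM N. gonorrhoeae FA19 PBP2 in 50 mM Hepes pH 8.0, 300 mM NaCl, 10% glycerol. Boronic acid inhibitors were preincubated with PBP, then Bocillin-FL was added and FP read (490/520 nm) up to 60 min. EC50 is the concentration halving PBP-bound Bocillin-FL.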

T1 sequence (P08149 whole entry): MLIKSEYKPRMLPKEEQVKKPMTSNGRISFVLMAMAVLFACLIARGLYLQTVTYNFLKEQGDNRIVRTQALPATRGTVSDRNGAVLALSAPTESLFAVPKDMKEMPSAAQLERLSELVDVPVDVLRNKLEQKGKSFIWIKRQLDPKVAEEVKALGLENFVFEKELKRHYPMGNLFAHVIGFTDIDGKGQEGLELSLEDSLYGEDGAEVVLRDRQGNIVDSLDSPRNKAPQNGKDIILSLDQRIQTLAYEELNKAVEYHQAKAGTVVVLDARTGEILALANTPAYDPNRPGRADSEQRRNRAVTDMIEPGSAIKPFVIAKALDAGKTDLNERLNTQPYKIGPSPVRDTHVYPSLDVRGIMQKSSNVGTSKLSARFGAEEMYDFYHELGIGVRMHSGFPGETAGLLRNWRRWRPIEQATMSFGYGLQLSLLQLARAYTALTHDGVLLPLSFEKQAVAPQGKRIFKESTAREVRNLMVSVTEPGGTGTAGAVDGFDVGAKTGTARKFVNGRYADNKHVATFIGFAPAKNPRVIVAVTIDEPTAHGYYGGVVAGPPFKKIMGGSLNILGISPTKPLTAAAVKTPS

CCN1CCN(C(=O)NC(C(=O)N[C@H]2Cc3cccc(C(=O)O)c3OB2O)c2ccc(P(=O)(O)O)c(F)c2O)C(=O)C1=O (stereo partly drawn) [Example 198, (3R)-3-(2-(4-ethyl-2,3-dioxopiperazine-1-carboxamido)-2-(3-fluoro-2-hydroxy-4-phosphonophenyl)acetamido)-2-hydroxy-3,4-dihydro-2H-benzo[e][1,2]oxaborinine-8-carboxylic acid]
EC50: < 10 µM
